How the values were obtained:
[1] = Dissolution in PBS media containing methyl cellulose polymer, Example 2; format: physicochemical; settings: PBS media with methyl cellulose polymer, Average (Standard Error of the Mean)
From the text: (§1) This Example described further characterization of a variety of drugs in MOF-5. Methyl cellulose polymer was included in both SG and PBS) dissolution media to inhibit precipitation of drug molecules at high supersaturation and to serve as a proxy for what would be an extensive formulation process of this supersaturating drug delivery system. […] Immediate release of CUR molecules from CUR@MOF-5 via MOF hydrolytic decomposition leads to rapid dissolution which generates high supersaturation in the first 60 min (FIGS. 5a and b). […] This immediate drug release from drug@MOF-5 composite is in contrast with controlled drug release from an amorphous drug@MOF composite with a water stable framework ([…] al., Chem. Commun. 2015, 51, 13878).

[2] = Dissolution in SG media containing methyl cellulose polymer, Example 2; format: physicochemical; settings: SG media with methyl cellulose polymer, Average (Standard Error of the Mean)
From the text: as §1

[3] = Dissolution and supersaturation in phosphate buffer saline (PBS) media, UV-vis, Example 1; format: physicochemical; settings: for AUC0-4 / Cmax: 37° C., Average (Standard Error of the Mean)
Procedure: (§2) To determine the dissolution and supersaturation behavior in SG and PBS media of all CUR, SUL, CUR@MOF-5 and SUL@MOF-5 composites and their physical mixture samples, UV-vis spectroscopy (which is applied to monitor the dissolution process) was used. Concentration of CUR and SUL at 37° C. was determined. FIGS. 4a-d illustrate the solubility of pure CUR, CUR@MOF-5 composite and physical mixture and pure SUL, SUL@MOF-5 composite and physical mixture in SG and PBS media respectively. […] Because the immediate release of CUR molecules (from CUR@mof-5 composite) led to rapid dissolution, which generates high supersaturation in the first 60 min. […] Subsequently, a crystallization process occurs accompanied by a decrease in CUR concentration in both media.

[4] = Dissolution and supersaturation in simulated gastric (SG) media, UV-vis, Example 1; format: physicochemical; settings: 37° C., Average (Standard Error of the Mean)
Procedure: as §2

mouse model = settings: oral, Ullmann's Encyclopedia; cited from earlier work

| AUC0-4 [1] | Cmax [1] | AUC0-4 [2] | Cmax [2] | dissolution behavior in PBS media [3] | AUC0-4 [3] | Cmax [3] | AUC0-4 [4] | Cmax [4] | Structure (SMILES) | lethal dose, LD50 (mouse model) |
| --- | --- | --- | --- | --- | --- | --- | --- | --- | --- | --- |
| 5.89(9) mg*h/mL | 26.89(8) μg/mL | – | – | – | – | – | – | – | Nc1nc(N)c2nc(-c3ccccc3)c(N)nc2n1 [TAT, triamterene] | – |
| – | – | 1.38(2) mg*h/mL | 6.84(7) μg/mL | fully dissolved | 15.82(21) mg*h/mL | 68.65(91) μg/mL | 1.32(2) mg*h/mL | 6.01(6) μg/mL | CC1=C(CC(=O)O)c2cc(F)ccc2/C1=C\c1ccc([S+](C)[O-])cc1 (stereo not drawn) [SUL, sulindac] | – |
| 0.15(2) mg*h/mL | 0.95(4) μg/mL | 0.39(6) mg*h/mL | 2.12(21) μg/mL | – | 0.22(3) mg*h/mL | 1.12(7) μg/mL | 0.41(6) mg*h/mL | 1.99(4) μg/mL | COc1cc(/C=C/C(=O)CC(=O)/C=C/c2ccc(O)c(OC)c2)ccc1O [CUR, curcumin] | – |
| – | – | – | – | – | – | – | – | – | O=C(O)c1ccc(C(=O)O)cc1 [terephthalic acid] | over 1 g/kg |

Reference: patent US20230330233A1, “COMPOSITIONS AND METHODS FOR DELIVERING PHARMACEUTICAL AGENTS” (priority 2018, published 2023)
